PubChem BioAssay AID463074 (Broad Institute, 2010)
The source made the active and inactive calls.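 The calls were made as follows: active = AC50 no more than tenfold above the top dose tested, or full inhibition at every dose with a flat fit (cut at about 19 µM in these data); inconclusive = flat curve fit with inhibition between 30% and 70%, or poor fit; inactive = AC50 more than tenfold above the top dose tested.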

System: HMLE_sh_eGFP viability, CellTiter-Glo luminescence, 72 h
Experiment: viability loss of HMLE_sh_eGFP cells – cell-based, luminescence, counter-screen for HMLE_sh_ECad selective toxicity project, dose response (AID 463074);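 also: counterscreen control line to flag general toxicity for the HMLE_sh_ECad screen; potency for loss of viability as luminescence drops below DMSO wells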

## CN1CCc2c(sc(NC(=O)c3ccc(S(=O)(=O)N4CCc5ccccc54)cc3)c2C(N)=O)C1
  AC50: 5.01 µM

## Cc1ccc(Oc2nc(CN3CCOCC3)nc3sc4c(c23)CCC(C)C4)cc1C (configuration not stated)
  AC50: 6.32 µM

## COc1ccc(C(=O)Nc2cccc(/C=C/c3nc4ccccc4c(=O)[nH]3)c2)cc1
  AC50: 3.58 µM

## Cc1cccc(NS(=O)(=O)c2ccc(C3CCCCC3)cc2)c1
  AC50: 5.18 µM

## Cc1ccc(C(NC(=O)C(C)C)c2cc([N+](=O)[O-])c3cccnc3c2O)cc1 (configuration not stated)
  AC50: 3.16 µM

## O=C1NC[C@@H](Cc2cccc3ccccc23)N(CCCCC2CCCCC2)C1=O
  AC50: 7.05 µM

## Cc1ccc(/C=C/C(=O)N2CC(C)CC(C)C2)o1 (configuration not stated)
  AC50: 17 µM

## COc1ccc(Br)cc1C(=O)Nc1cccc(C)c1
  AC50: > 19.5 µM (inactive)

## O=C(COC(=O)c1c2c(nc3ccccc13)/C(=C\c1cccs1)CCC2)Nc1ccccc1
  AC50: 2.77 µM

## CN(C)C(CNS(=O)(=O)c1ccc2ccccc2c1)c1ccccc1 (configuration not stated)
  AC50: > 19.5 µM (inactive)

## O=[N+]([O-])c1cc(S(=O)(=O)C(F)(F)F)ccc1Sc1nc2ccccc2[nH]1
  AC50: 4.46 µM

## O=c1c2ccccc2nc(/C=C/c2ccc(Br)cc2)n1CCO
  AC50: 16.6 µM

## CC(C)OCCCNC(=O)c1c(N)n(Cc2cccs2)c2nc3ccccc3nc12
  AC50: 4.3 µM

## CC1CCCN(CCCOc2ccc(Br)cc2Cl)C1 (configuration not stated)
  AC50: 8.36 µM

## CC1CCN(c2nc(-c3cccnc3)nc3scc(-c4ccccc4)c23)CC1
  AC50: 1.48 µM

## CC(OC(=O)c1cccs1)C(=O)NC1CCCCC1C (configuration not stated)
  AC50: > 19.5 µM (inactive)

## CCNc1nc(Oc2c(Cl)cccc2Cl)cc(C(F)(F)F)n1
  AC50: 13.1 µM

## CC[C@@H]1Cc2cc(O)ccc2C2=C1c1ccc(O)cc1C[C@H]2CC
  AC50: 4.15 µM

## CN(C(=O)COC(=O)/C=C/c1cccc([N+](=O)[O-])c1)C1CCS(=O)(=O)C1 (configuration not stated)
  AC50: 4.61 µM

## CCc1ccc2oc(C(=O)NCC(c3ccc(OC)cc3)N3CCCCC3)c(C)c2c1 (configuration not stated)
  AC50: 6.09 µM

## CC(C)(C)c1ccc(OCC(=O)N/N=C/c2cc(Br)ccc2OC(=O)c2ccco2)cc1
  AC50: 3.61 µM

## O=C(/C=C/c1ccccc1)NNc1ccc(Cl)cc1
  AC50: 12 µM

## Cc1[nH]nc2nc(SCC(=O)NC3CCCCC3)n(-c3ccc(Br)cc3)c(=N)c12
  AC50: 14.4 µM

## CCOc1ccc2nc(NC3=NC(c4ccc(OC)cc4)CC(=O)N3)nc(C)c2c1 (configuration not stated)
  AC50: 7.28 µM

## Clc1ccc(-c2ccc(/C=N/Nc3cc(N4CCOCC4)nc(N4CCOCC4)n3)o2)cc1
  AC50: 4.24 µM

## CCc1ccc2[nH]c3nc(N/N=C/c4cccc(O)c4)nnc3c2c1
  AC50: < 0.16 µM

## CCCC(=O)Nc1nc2ccc(NC(=O)c3c(F)c(F)c(OC)c(F)c3F)cc2s1
  AC50: 1.56 µM

## Nc1ccc(CCN2CCN(c3cccc(C(F)(F)F)c3)CC2)cc1
  AC50: 1.42 µM

## COC(=O)c1c(NC(=O)Cc2cccs2)sc2c1CCC(C)C2 (configuration not stated)
  AC50: 9.75 µM

## O=c1cc(N2CCCCC2)c(-c2ccccc2)nn1Cc1ccc(Cl)cc1Cl
  AC50: 3.96 µM

## Clc1ccc(N/N=C/c2cccnc2)cc1
  AC50: 7.94 µM

## CCC(c1nnnn1Cc1ccco1)N1CCN(c2cc(Cl)ccc2C)CC1 (configuration not stated)
  AC50: 4.04 µM

## COc1cccc(/C=C/c2nc(C#N)c(NCC(C)C)o2)c1
  AC50: 5.06 µM

## Cc1cc(C)cc(NC(=O)CSc2ccc(-c3ccccn3)nn2)c1
  AC50: 3.61 µM

## CCCCc1oc2ccccc2c1C(=O)c1cc(I)c(OCCN(CC)CC)c(I)c1
  AC50: 6.92 µM

## COc1cc(C(=O)OC2CC3CCC2(C)C3(C)C)ccc1OC(C)=O (configuration not stated)
  AC50: 6.46 µM

## O=C(NC1CONC1=O)OCC(Cl)(Cl)Cl (configuration not stated)
  AC50: > 19.5 µM (inactive)

## Cc1ccc(-c2cc(-c3ccccc3)nc(NN)n2)cc1
  AC50: 4.19 µM

## O=C(NNc1ccccc1Br)C(=O)n1ccc2ccccc21
  AC50: 8.69 µM

## Clc1ccc(CO/N=C/c2c(-c3ccccc3)nc3n2CCS3)c(Cl)c1
  AC50: 4.62 µM

## Oc1ccc(/C=N/Nc2nc(-c3ccc(Cl)cc3)cc(C(F)(F)F)n2)cc1
  AC50: 6.82 µM

## O=C1CC(c2cc(Br)ccc2F)c2cc3c(cc2N1)CCC3 (configuration not stated)
  AC50: 0.196 µM

## Cc1ccc(NC(=O)Cn2c(O)c(N=NC(=O)c3cc4ccccc4cc3O)c3ccccc32)cc1
  AC50: 3.92 µM

## C(=C\c1nc(N2CCCCCC2)c2ccccc2n1)/c1ccccc1
  AC50: 5.54 µM

## CCC(C)n1ncn(-c2ccc(N3CCN(c4ccc(O)cc4)CC3)cc2)c1=O (configuration not stated)
  AC50: 1.47 µM

## O=C(N/N=C/c1ccc[nH]1)c1sc2ccccc2c1Cl
  AC50: 13.4 µM

## CCCCOC(=O)c1c(C)oc2ccc(NS(=O)(=O)c3ccc4c5c(cccc35)C(=O)N4)cc12
  AC50: 9.12 µM

## Oc1ccc(N=Nc2nc(-c3ccccc3)c(-c3ccccc3)[nH]2)cc1
  AC50: 4.53 µM

## Oc1ccc(N=Nc2ccc3ccccc3c2)cc1
  AC50: 7.43 µM

## Cc1cc(C)cc(-n2c(C)cc(/C=C3\C(=N)N4N=C(CC(C)C)SC4=NC3=O)c2C)c1
  AC50: 4.82 µM

## Cc1sc2ncnc(N3CCC(C(=O)N(C)CC(=O)Nc4ccc(Cl)c(C(F)(F)F)c4)CC3)c2c1C
  AC50: 3.93 µM

## COc1ccc(-c2sc3cc4c(cc3c2C#CC2(O)CCCCC2)OCO4)cc1
  AC50: 6.35 µM

## CC(=O)NNc1cccc(Cl)n1
  AC50: > 19.5 µM (inactive)

## CCN1CCN(CCCNC(=O)c2ccc(/C=C3/Sc4ccccc4N(Cc4ccccc4F)C3=O)cc2)CC1
  AC50: 3.14 µM

## CCC1=NN(C(=O)c2cccc(Br)c2)C(O)(c2ccc(Br)cc2)C1 (configuration not stated)
  AC50: 1.37 µM

## CCN1CCN(CCNC(=O)c2ccc3c(c2)N(Cc2ccc(F)cc2)C(=O)/C(=C/c2ccccc2)S3)CC1
  AC50: 3.71 µM

## CC(C)(C)[C@@H]1CCC(=O)N(CC[C@H](Sc2ccc(Br)cc2)c2ccccc2)CC1
  AC50: 3.38 µM

## O=[N+]([O-])/C=C/c1cn(Cc2ccc(F)cc2)c2ccccc12
  AC50: 6.86 µM

## COc1ccc(/C=N/Nc2cc(N3CCCC3)nc(N3CCCC3)n2)cc1
  AC50: 5.14 µM

## O=c1c(Cl)c(NCc2ccccc2)cnn1C12CC3CC(CC(C3)C1)C2
  AC50: 3.19 µM

## Clc1ccc(Nc2ncnc3ccc(Br)cc23)cc1
  AC50: 17.5 µM

## CCOC(=O)CS(=O)(=O)c1nc(-c2ccccc2)cc(C(F)(F)F)n1
  AC50: 3.25 µM

## COc1ccc(-c2cn[nH]c2-c2ccc(OCc3ccccc3)cc2O)cc1
  AC50: 7.02 µM

## Cn1nc(-c2ccccc2F)c2cc(C(=O)Nc3ccc4c(c3)OCCO4)sc21
  AC50: > 19.5 µM (inactive)

## CCCCCCCCOC(=O)C1=C(C)Nc2nnnn2C1c1cccs1 (configuration not stated)
  AC50: 6.86 µM

## N#Cc1c(NC(=O)c2ccc(Cn3cc(Br)cn3)o2)sc2c1CCCCC2
  AC50: 13.4 µM

## Cc1cccc(CN2CCN(C(c3ccccc3)c3ccc(Cl)cc3)CC2)c1 (configuration not stated)
  AC50: 4.76 µM

## COc1ccc(-c2sc3ccccc3c2C#CCCO)cc1
  AC50: 6.5 µM

## CNC(CC(=O)c1ccc([N+](=O)[O-])cc1)C(Cl)(Cl)Cl (configuration not stated)
  AC50: 3.96 µM

## Oc1ccc(-c2cnc(-c3ccc(O)cc3)nc2)cc1
  AC50: 0.304 µM

## Cc1cc(C)cc(NS(=O)(=O)c2ccc3[nH]cc(C(=O)NCc4ccco4)c(=O)c3c2)c1
  AC50: 1.5 µM

## CCOC(=O)c1sc(NC(=O)Nc2ccccc2Cl)cc1C
  AC50: 7.58 µM

## Cn1c(O)c(/C=N/Nc2ccccc2)c(=O)n(C)c1=O
  AC50: 4.08 µM

## O=C(Nc1ncc(S(=O)(=O)c2ccc([N+](=O)[O-])cc2)s1)c1ccc2ccccc2c1
  AC50: 3.61 µM

## Nc1ncnc2c1c(-c1ccc(Oc3ccccc3)cc1)cn2C1CCCC1
  AC50: 1.7 µM

## CCn1c(C)nc2cc(C(=O)N/N=C/c3cccc(OC)c3O)ccc21
  AC50: 6.95 µM

## COc1ccc2c(c1)CCc1c(C(=O)N3CC4(C)CC3CC(C)(C)C4)noc1-2 (configuration not stated)
  AC50: < 0.16 µM

## Clc1ccc(/C=C/c2nc3ccccc3[nH]2)cc1
  AC50: 3.5 µM

## CC1(C)Cc2c(C#N)c(NC3CCCCC3)nc(-c3ccco3)c2CO1
  AC50: 7.19 µM

## CNC(=S)N/N=C/c1cn(Cc2ccc(C)cc2)c2ccccc12
  AC50: 5.94 µM

## CC(C)=CCc1c(O)c(CC=C(C)C)c2occ(-c3ccc(O)cc3)c(=O)c2c1O
  AC50: 3.49 µM

## COC(=O)c1c(NC(=O)/C=C/c2ccc3c(c2)OCO3)sc(C)c1C
  AC50: 1.7 µM

## CC1(C)Cc2ccccc2C(CSc2ccccc2C(=O)O)=N1
  AC50: 17.2 µM

## COc1ccc(Oc2c(Cl)cnn(-c3ccc(Cl)c(Cl)c3)c2=O)cc1
  AC50: 3.44 µM

## Cc1ccc(C(=O)N/N=C\c2ccc(-c3ccc(Cl)c(Cl)c3)o2)cn1
  AC50: 5.54 µM

## COc1ccc(-c2ccc(C)cc2)cc1[C@H]1[C@@H]2C=CCC[C@@]2(C)C(=O)N1Cc1ccccc1
  AC50: 3.87 µM

## O=S(=O)(c1ccccc1)N(CC(O)Cn1c2ccccc2c2ccccc21)c1ccccc1 (configuration not stated)
  AC50: 6.55 µM

## CC(C)(C)c1cc(NCc2ccccn2)n2ncc(-c3ccccc3)c2n1
  AC50: 6.85 µM

## Cc1cc(C)cc(C(=O)Nc2nnc(SCC(=O)N3CCCc4ccccc43)s2)c1
  AC50: > 19.5 µM (inactive)

## CCN(CC)Cc1c(O)ccc2c1O/C(=C\C=C\c1ccccc1)C2=O
  AC50: 18.8 µM

## C[C@@H]1O[C@@H](O[C@H]2C[C@@H](O)[C@]3(CO)[C@H]4[C@H](O)C[C@]5(C)[C@@H](C6=CC(=O)OC6)CC[C@]5(O)[C@@H]4CC[C@]3(O)C2)[C@H](O)[C@H](O)[C@H]1O
  AC50: < 0.16 µM

## CC(C)n1cnc2c(NCc3ccccc3)cc(N[C@H](C)CO)cc21
  AC50: 7.36 µM

## O=C(NC(=S)Nc1cccc(Cl)c1N1CCCCC1)c1ccc2c(c1)OCCO2
  AC50: 1.52 µM

## Cc1cccc(NC(=O)c2nc[nH]c2C(=O)NCCCNC(=O)c2[nH]cnc2C(=O)Nc2cccc(C)c2)c1
  AC50: 6.71 µM

## CN(C(=S)Nc1ccc(SC(F)F)cc1)C(c1ccccc1)c1ccccc1
  AC50: 5.58 µM

## O=c1[nH]c(/C(Cl)=C/c2cc(Cl)ccc2O)nc2cc(Cl)ccc12
  AC50: 2.37 µM

## c1ccc(-c2sc3ccccc3c2-c2ccc(OCCN3CCCC3)cc2)cc1
  AC50: 2.37 µM

## COc1cc2c(cc1NC(=O)CN(C)Cc1cccc(OC)c1OC)oc1ccccc12
  AC50: 3.56 µM

## Cc1cc(/C=C2\SC(=S)N(Cc3ccco3)C2=O)c(C)n1-c1ccccc1
  AC50: 2.92 µM

## COc1cccc(/C=C/c2ccc3ccccc3n2)c1OC(C)=O
  AC50: 11.7 µM

## Cn1nnnc1Sc1ncnc2scc(-c3cccc4c3sc3ccccc34)c12
  AC50: 1.65 µM

## OC(CNCC(c1ccc(Cl)cc1Cl)c1c[nH]c2ccccc12)c1ccccc1 (configuration not stated)
  AC50: 2.88 µM

## CCOc1ccc(OCC(=O)N(CCC2=CCCCC2)c2c(N)n(Cc3ccccc3)c(=O)[nH]c2=O)cc1
  AC50: 6.29 µM

## COc1ccc(C=C2C=C(C(C)(C)C)C(=O)C(C(C)(C)C)=C2)cc1OC
  AC50: 3.47 µM

## C/C(=N\Nc1cc(C(F)(F)F)ccc1Cl)c1ccccc1O
  AC50: 19.9 µM

## CN(C)c1ccc(/C=C2\CCC/C(=C\c3ccccc3)C2=O)cc1
  AC50: 5.47 µM

## CCOC(=O)N1C(=O)[C@@](c2ccc(Cl)cc2)(C(C)C)N1C(=O)OCC
  AC50: 7.14 µM
